From patent publication US9850272B2, “Therapeutically active estratrienthiazole derivatives as inhibitors of 17.beta-hydroxy-steroid dehydrogenase, type 1” (FORENDO PHARMA LTD, priority 2013, dated 2017)

Tests used:
[1] = target: T1, Recombinant Human 17β-HSD1 (Homo sapiens, UniProt P14061); assay: Inhibition of recombinant human 17β-HSD1 (conversion of 3H-estrone to estradiol, HPLC); type: biochemical; details: inhibitor at 1 μM; 30 nM estrone, 1 mM NADPH, 30 min at RT; read-out: 17β-HDS1 Inhibition % at 1 μM
T1 construct: made in house; host or cells: Sd9 (Sf9) insect cells, baculovirus (Bac to Bac Expression System)
T1 sequence (P14061 1-328): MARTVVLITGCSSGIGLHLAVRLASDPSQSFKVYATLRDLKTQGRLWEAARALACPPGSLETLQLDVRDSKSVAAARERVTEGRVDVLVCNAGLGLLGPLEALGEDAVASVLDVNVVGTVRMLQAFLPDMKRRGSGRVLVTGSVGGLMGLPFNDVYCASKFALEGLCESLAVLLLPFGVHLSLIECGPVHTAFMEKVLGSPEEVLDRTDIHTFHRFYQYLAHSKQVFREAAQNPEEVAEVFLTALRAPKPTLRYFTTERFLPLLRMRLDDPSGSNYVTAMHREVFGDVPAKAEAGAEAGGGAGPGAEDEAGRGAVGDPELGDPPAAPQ
Experimental: 17β-HSD1 Production and Isolation:
Recombinant baculovirus was generated by the “Bac to Bac Expression System” (Invitrogen). Recombinant bacmid was transfected to Sd9 insect cells using “Cellfectin Reagent” (Invitrogen). 60 h later cells were harvested; the microsomal fraction was isolated as described by Puranen, T. J., Poutanen, M. H., Peltoketo, H. E., Vihko, P. T. and Vihko, R. K. (1994) Site-directed mutagenesis of the putative active site of human 17 β-hydroxysteroid dehydrogenase type 1. Biochem. J. 304: 289-293. Aliquots were stored frozen until determination of enzymatic activity.
Assay—Inhibition of Recombinant Human 17β-HSD1:
Recombinant protein (1 μg/ml) was incubated in 20 mM KH2PO4 pH 7.4 with 30 nM estrone (including 800.000 cpm/ml of ^3H-estrone) and 1 mM NADPH for 30 min at RT, in the presence of the potential inhibitor at concentrations 1 μM or 0.1 μM. Inhibitor stock solutions were prepared in DMSO. Final concentration of DMSO was adjusted to 1% in all samples. The enzyme reaction was stopped by addition of 10% trichloroacetic acid (final concentration). Samples were centrifuged in a microtiter plate at 4000 rpm for 10 min. Supernatants were applied to reverse phase HPLC on a Waters Symmetry C18 column, equipped with a Waters Sentry Guard column. Isocratic HPLC runs were performed at RT at a flow rate of 1 ml/min in acetonitrile:water 48:52 as running solvent. Radioactivity was monitored in the eluate by a Packard Flow Scintillation Analyzer. Total radioactivity for estrone and estradiol were determined in each sample and percent conversion of estrone to estradiol was calculated according to the following formula:
(§1) Percent inhibition was calculated flowingly: % inhibition=100−% conversion

[2] = target: T2, Recombinant Human 17β-HSD2 (Homo sapiens, UniProt P37059); assay: Inhibition of recombinant human 17β-HSD2 (conversion of 3H-estradiol to estrone, HPLC); type: biochemical; details: inhibitor at 1 μM; 50 nM estradiol, 1 mM NADH, 30 min at RT; read-out: 17β-HSD2 Inhibition % at 1 μM
T2 construct: made in house; host or cells: Sd9 (Sf9) insect cells, baculovirus (Bac to Bac Expression System)
T2 sequence (P37059 1-387): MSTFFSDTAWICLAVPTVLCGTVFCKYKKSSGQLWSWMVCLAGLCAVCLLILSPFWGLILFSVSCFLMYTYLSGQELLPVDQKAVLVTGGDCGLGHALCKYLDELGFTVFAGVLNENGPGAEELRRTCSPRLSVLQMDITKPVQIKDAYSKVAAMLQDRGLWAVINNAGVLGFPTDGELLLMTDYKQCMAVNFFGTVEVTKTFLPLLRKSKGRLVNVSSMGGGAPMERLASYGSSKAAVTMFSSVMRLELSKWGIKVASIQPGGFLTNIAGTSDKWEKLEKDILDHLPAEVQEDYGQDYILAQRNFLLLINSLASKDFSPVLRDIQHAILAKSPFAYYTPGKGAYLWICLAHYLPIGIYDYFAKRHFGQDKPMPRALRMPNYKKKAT
Experimental: 17β-HSD2 Production and Isolation:
Similarly to 17β-HSD1 the Recombinant baculovirus was generated by the “Bac to Bac Expression System” (Invitrogen). Recombinant bacmid was transfected to Sd9 insect cells using “Cellfectin Reagent” (Invitrogen). 60 h later cells were harvested and supernatant were fractionated by the following protocol: • cells were dissolved into 40 ml of A-buffer (40 mM TRIS, pH8.0, 20% glycerol, 20 μM NAD, 0.4 mM PMSF, 150 mM NaCl, 0.5% dodecyl-β-maltoside+protease inhibitor cocktail) • cells were sonicated • lysate was incubated on ice for 15 min • lysate was centrifuged 5000 rpm 15 min, +4° C. • centrifugation of the supernatant 180.000 g 30 min, +4° C. • pellet was dissolved into 8 ml of A-buffer • not resuspended material was removed by centrifugation 5000 rpm 15 min, +4° C. • the clear supernatant was divided into 100 μl aliquots and were stored frozen until determination of enzymatic activity.
The amount of 17β-HSD2 was analysed by immunoblotting and total protein concentration of each extract batch was determined.
Assay—Inhibition of Recombinant Human 17β-HSD2:
Recombinant protein (4 μg/ml) was incubated in 20 mM KH2PO4 pH 8.5 with 50 nM estradiol (including 800.000 cpm/ml of ^3H-estradiol) and 1 mM NADH for 30 min at RT, in the presence of the potential inhibitor at concentrations 1 μM or 0.1 μM. Inhibitor stock solutions were prepared in DMSO. Final concentration of DMSO was adjusted to 1% in all samples. The enzyme reaction was stopped by addition of 10% trichloroacetic acid (final concentration). Samples were centrifuged in a microtiter plate at 4000 rpm for 10 min. Supernatants were applied to reverse phase HPLC on a Waters Symmetry C18 column, equipped with a Waters Sentry Guard column. Isocratic HPLC runs were performed at RT at a flow rate of 1 ml/min in acetonitrile:water 48:52 as running solvent. Radioactivity was monitored in the eluate by a Packard Flow Scintillation Analyzer. Total radioactivity for estrone and estradiol were determined in each sample and percent conversion of estradiol to estrone was calculated according to the following formula:
as §1

Structure (SMILES): Cc1cnc(NC(=O)CC[C@@H]2C[C@H](O)[C@@]3(C)CCC4c5ccc(O)c(NC(C)C)c5CCC4C23)s1 (stereo partly drawn) [Compound 71, 3-((13S,15R,17S)-3,17-Dihydroxy-4-isopropylamino-13-methyl-7,8,9,11,12,13,14,15,16,17-decahydro-6H-cyclopenta[a]phenanthren-15-yl)-N-(5-methylthiazol-2-yl)propionamide]
- inhibition at 1 µM [1]: 49%
- inhibition at 1 µM [2]: 10%

Structure (SMILES): Cc1cnc(NC(=O)CC[C@@H]2C[C@H](O)[C@@]3(C)CCC4c5ccc(O)c(NC(C)CO)c5CCC4C23)s1 (stereo partly drawn) [Compound 72, 3-[(13S,15R,17S)-3,17-Dihydroxy-4-(2-hydroxy-1-methyl-ethylamino)-13-methyl-7,8,9,11,12,13,14,15,16,17-decahydro-6H-cyclopenta[a]phenanthren-15-yl]-N-(5-methylthiazol-2-yl)propionamide]
- inhibition at 1 µM [1]: 50%
- inhibition at 1 µM [2]: 0%

Structure (SMILES): Cc1cnc(NC(=O)CC[C@@H]2CC(NC(C)C)[C@@]3(C)CCC4c5ccc(O)cc5CCC4C23)s1 (stereo partly drawn) [Compound 73, 3-[(13S,15R)-3-Hydroxy-17-isopropylamino-13-methyl-7,8,9,11,12,13,14,15,16,17-decahydro-6H-cyclopenta[a]phenanthren-15-yl]-N-(5-methylthiazol-2-yl)propionamide]
- inhibition at 1 µM [1]: 86%
- inhibition at 1 µM [2]: 11%

Structure (SMILES): Cc1cnc(NC(=O)CC[C@@H]2C[C@H](NCC(C)C)[C@@]3(C)CCC4c5ccc(O)cc5CCC4C23)s1 (stereo partly drawn) [Compound 74, 3-((13S,15R)-3-Hydroxy-17-isobutylamino-13-methyl-7,8,9,11,12,13,14,15,16,17-decahydro-6H-cyclopenta[a]phenanthren-15-yl]-N-(5-methylthiazol-2-yl)propionamide]
- inhibition at 1 µM [1]: 80%
- inhibition at 1 µM [2]: 2%

Structure (SMILES): Cc1cnc(NC(=O)CC[C@@H]2C[C@H](NCC(C)C)[C@@]3(C)CCC4c5cc(C(C)(C)C)c(O)cc5CCC4C23)s1 (stereo partly drawn) [Compound 75b, 3-((13S,15R)-2-tert-Butyl-3-Hydroxy-17-isobutylamino-13-methyl-7,8,9,11,12,13,14,15,16,17-decahydro-6H-cyclopenta[a]phenanthren-15-yl]-N-(5-methylthiazol-2-yl)propionamide]
- inhibition at 1 µM [1]: 77%
- inhibition at 1 µM [2]: 13%

Structure (SMILES): Cc1cnc(NC(=O)CC[C@@H]2C[C@H](NCc3ccco3)[C@@]3(C)CCC4c5ccc(O)cc5CCC4C23)s1 (stereo partly drawn) [Compound 76, 3-((13S,15R)-17-[(Furan-2-ylmethyl)-amino]-3-hydroxy-13-methyl-7,8,9,11,12,13,14,15,16,17-decahydro-6H-cyclopenta[a]phenanthren-15-yl]-N-(5-methylthiazol-2-yl)propionamide]
- inhibition at 1 µM [1]: 85%
- inhibition at 1 µM [2]: 4%

Structure (SMILES): COCCNC1C[C@@H](CCC(=O)Nc2ncc(C)s2)C2C3CCc4cc(O)ccc4C3CC[C@]12C (stereo partly drawn) [Compound 77, 3-((13S,15R)-3-Hydroxy-17-(2-methoxyethylamino)-13-methyl-7,8,9,11,12,13,14,15,16,17-decahydro-6H-cyclopenta[a]phenanthren-15-yl]-N-(5-methylthiazol-2-yl)propionamide]
- inhibition at 1 µM [1]: 84%
- inhibition at 1 µM [2]: 1%

Structure (SMILES): Cc1cnc(NC(=O)CC[C@@H]2CC(NCCO)[C@@]3(C)CCC4c5ccc(O)cc5CCC4C23)s1 (stereo partly drawn) [Compound 78, 3-((13S,15R)-3-Hydroxy-17-(2-hydroxyethylamino)-13-methyl-7,8,9,11,12,13,14,15,16,17-decahydro-6H-cyclopenta[a]phenanthren-15-yl]-N-(5-methylthiazol-2-yl)propionamide]
- inhibition at 1 µM [1]: 88%
- inhibition at 1 µM [2]: 2%

Structure (SMILES): COCCNC1C[C@@H](CCC(=O)Nc2ncc(C)s2)C2C3CCc4cc(O)c(C(C)(C)C)cc4C3CC[C@]12C (stereo partly drawn) [Compound 79, 3-((13S,15R)-2-tert-Butyl-3-hydroxy-17-(2-methoxyethylamino)-13-methyl-7,8,9,11,12,13,14,15,16,17-decahydro-6H-cyclopenta[a]phenanthren-15-yl)-N-(5-methylthiazol-2-yl)propionamide]
- inhibition at 1 µM [1]: 75%
- inhibition at 1 µM [2]: 17%
